Assay results: patent US9056923B2, “Mimetic peptides derived from collagen type IV and their use for treating angiogenesis- and lymphagiogenesis-dependent diseases” (THE JOHNS HOPKINS UNIVERSITY, priority 2010, dated 2015)
pIC50: −log10 of the molar value. “Also recorded” adds a separate entry of the source. Square brackets hold non-standard residues; d marks the D form. Ends that are not written are not given here. Peptide text beside a SMILES is read from it. Abu = CC[C@H](N)C(=O)O

Assays:
[1] = test system: HUVEC; type: cell-based, human; conditions: for Activity in Proliferation: Yes/No summary
Description: Several assays were used to test the peptides discussed in the Examples herein. A colorimetric based proliferation assay using WST-1 (Roche, 11644807001) proliferation reagent was carried out using HUVEC cells. 2000 cells/well were plated in 96-well plates and allowed to adhere overnight. On the following day, the media was exchanged with fully supplemented media containing peptides or equivalent DMSO vehicle for the controls. Three days later the media containing the peptides was replaced with serum-free EBM-2 media containing WST-1 reagent and the plates were incubated for four hours as per the manufacturer's recommendations. Changes in color, due to the formazan dye resulted from the cleavage of the tetrazolium salt WST-1 by the mitochondrial succinate-tetrazolium reductase, were read on a Victor V fluorescence plate reader (Perkin Elmer, MA) by measuring the absorbance at 450 nm Dose response curves of percent live cells (in comparison to untreated cells but incubated in complete media with 0.2% DMSO) were created. Assays were performed in at least two independent replicates and each replicate was performed using three experimental triplicates.

[2] = test system: HUVEC; assay: HUVEC migration assay (RT-CIM); type: cell-based, human; conditions: for Migration Inhibition (50 uM): 50 uM peptide; for Activity in Migration: Yes/No summary, active = inhibitory potential greater than 30%; for inhibition of migration: concentration not given; for Migration Inhibition (5 uM): 5 uM peptide
Description: The inhibitory potential of the peptides was measured using a real time migration assay system based on electrical impedance (RT-CIM, ACEA Biosciences, CA). CIM 16 well plates (Roche, 05665817001) are composed of a top and bottom chamber separated by a microporous (8 μm) polycarbonate membrane. The membrane was coated with fibronectin (20 μg/mL), and 45,000 cells/well in serum free media with or without peptides were added to the top compartment. Media with chemoattractant (i.e., fully supplemented EBM-2) was added to the bottom compartment of the chamber and the plate was incubated at 37° C. for 20 hours. The sensors integrated on the bottom side of the membrane monitor and continuously record changes in impedance as the cells move through the membrane. The RT-CIM technology allows for easy quantification of cell migration by monitoring the cell index derived from the measured impedances. Assays were performed in at least two independent replicates and each replicate was performed using two experimental duplicates.

[3] = test system: HUVEC; type: cell-based, human; conditions: HUVEC; for Adhesion Inhibition (100 uM): 100 uM peptide; for Activity in Adhesion: Yes/No summary, active = inhibitory potential greater than 30%
Description: Similar to the migration assays, the inhibition activity of the peptide in cellular adhesion was assessed using the RT-CIM technology. In this case, 25,000 cells/well were plated in 16 wells E-plates (Roche, Basel Switzerland) in the presence or absence of the peptide. The adhesion was monitored over time (3 hours) by measuring changes in the electrical impedance, which is a direct measure of the cells adhering on the electrodes. […] Assays were performed in at least two independent replicates and each replicate was performed using two experimental duplicates.

[4] = test system: HUVEC; assay: HUVEC tube formation assay on Matrigel; type: cell-based, human; conditions: for Tube formation Inhibition (100 uM): 100 uM peptide; for Activity in Tube formation: Yes/No summary; for inhibition of tube formation (FIG. 20): high dose, 100 nM; for inhibition of tube formation: concentration not given
Description: The compounds also were tested for their ability to inhibit tube formation, a process critical in angiogenesis. Endothelial cells spontaneously form a network of tubes when plated on extracts of extracellular matrix. This in vitro assay combines aspects of adhesion and migration and it is routinely used in angiogenesis research (Oliveira-Ferrer et al., 2008). The ability to inhibit tube formation is a comprehensive assessment of the anti-angiogenic potential. The protocol was described by Arnaoutova et al. (2009) and it consists of plating HUVEC on top of basement membrane extract and after incubation at 37° C. the cells naturally rearrange themselves in a network of tubes. Thus, 50 μL/well of Matrigel (BD Biosciences, San Jose, Calif.) was plated in a cold 96 well plate and incubated at 37° C. for 30 min for polymerization. 15,000 cells/well were added to the top of the gel and incubated in complete media in the presence or absence of peptide for 19 hours. Images were captured using the CCD Sensicam mounted on a Nikon microscope (Eclipse T-100). Assays were performed in at least two independent replicates and each replicate was performed using three experimental replicates and one image of a randomly chosen field was acquired per well.

[5] = test system: MDA-MB-231 xenograft; assay: MDA-MB-231 orthotopic breast tumor xenograft; type: in vivo, SCID mice; conditions: for MDA-MB-231 xenograft inhibition: mice
Description: For primary tumor inhibition studies, 1−2×10^6 tumor cells were injected into 4-6 wk old female SCID mice. After the tumors reached a size of 100 mm^3 the animals were randomized into groups of 10 animals each. The animals were treated with vehicle, SP2012, SP2000, or SP2024. The peptides were administered subcutaneously daily. Dosing was continued for 3 or 4 weeks and tumor sizes were measured every 3 days using calipers. The tumor volume was estimated using the formula V=a^2b/2 where a and b are the smaller and larger diameters.
For the tumor xenograft assay, animals were housed and treated according to the approved animal protocol of the Institutional Care and Use Committee at Johns Hopkins Medical Institution (JHMI). Orthotopic breast tumors were initiated in SCID mice using MDA-MB-231 cells. 2×10^6 cells per 100 μL aliquot of single cell suspension were injected in the breast mannary fat pad. Tumors reached volumes of 75 mm^3 to 100 mm^3 in approximately 14-21 days. Mice were randomized and arranged in groups (8 mice per group) with similar tumor volumes (no statistical difference among averages) and treatment was commenced. Peptides were administered once per day intraperitoneally (i.p.) at doses of 10 mg/kg (subcutaneous delivery was also tested with certain peptides). Paclitaxel was administered at 5 mg/kg once a week, and to maintain the daily treatment regime PBS was administered on the non-treatment days. Tumors were measured every fourth day using calipers and the tumor volume was calculated using the formula V=ab^2/2, where a is the larger diameter and b is the smaller diameter.

Row | Compound | pIC50 [1] | Migration Inhibition (50 uM) [2] | Adhesion Inhibition (100 uM) [3] [%] | Tube formation Inhibition (100 uM) [4] | suppression of tumor growth ([5]; MDA-MB-231 xenograft in mice, 10 mg/kg daily) | microvascular density ([5]; after completion of the treatment at 21 days) | MDA-MB-231 xenograft inhibition [5] | Activity in Proliferation ([1]; HUVEC) | Activity in Migration [2] | inhibition of migration [2] | Activity in Adhesion [3] | Activity in Tube formation [4] | inhibition of tube formation (FIG. 20) [4] | inhibition of proliferation ([1]; HUVEC) | inhibition of tube formation [4] | Migration Inhibition (5 uM) [2] [%] | Proliferation Inhibition (IC50 in uM) ([1]; HUVEC, summary tables 2-4, 6, 7)
1 | CC[C@H](C)[C@H](NC(=O)[C@H](CC(N)=O)NC(=O)[C@H](CS)NC(=O)[C@H](Cc1ccccc1)NC(=O)[C@H](CCSC)NC(=O)[C@H](Cc1ccccc1)NC(=O)[C@@H]1CCCN1C(=O)[C@H](CCSC)NC(=O)[C@@H](NC(=O)[C@H](CO)NC(=O)[C@H](Cc1ccccc1)NC(=O)[C@H](CCCNC(=N)N)NC(=O)[C@H](CCCNC(=N)N)NC(=O)[C@@H](N)CC(C)C)[C@@H](C)O)C(=O)N[C@@H](CC(N)=O)C(=O)N[C@@H](CC(N)=O)C(=O)N[C@H](C(=O)N[C@@H](CS)C(=O)N[C@@H](CC(N)=O)C(=O)N[C@@H](Cc1ccccc1)C(N)=O)C(C)C [SP2000, reference compound] (H-LRRFSTMPFMFCNINNVCNF-NH2; N-terminus assumed) | 4.81 | 80% | 95 | Complete | tumor growth was inhibited | statistically different from one another | Active | – | – | – | – | – | – | – | – | – | –
2 | CC[C@H](NC(=O)[C@H](Cc1ccccc1)NC(=O)[C@H](CCSC)NC(=O)[C@H](Cc1ccccc1)NC(=O)[C@@H]1CCCN1C(=O)[C@H](CCSC)NC(=O)[C@@H](NC(=O)[C@@H](N)CO)[C@@H](C)O)C(=O)N[C@@H](CC(N)=O)C(=O)N[C@H](C(=O)N[C@@H](CC(N)=O)C(=O)N[C@@H](CC(N)=O)C(=O)N[C@H](C(=O)N[C@@H](CC)C(=O)N[C@@H](CC(N)=O)C(=O)N[C@@H](Cc1ccccc1)C(=O)O)C(C)C)[C@@H](C)CC [SP2011, STMPFMFAbuNINNVAbuNF-OH] (H-STMPFMF[Abu]NINNV[Abu]NF-OH; N-terminus assumed) | 4.29 | Inactive | 0 | Partial | – | – | Active | No | No | inactive in the migration assay | Yes | No | no activity in tube formation | – | – | – | –
3 | LRRFSTMPFMFSNINNVSNF-NH2 [SP2022] | – | – | 96.49 | – | – | – | – | Yes | Yes | – | Yes | Yes | – | not affected | – | – | –
4 | LRRFSTMPFMFTNINN-NH2 [SP2032, LRRFSTMPFMFTNINN] | – | 32.45% | 63 | Complete | – | – | – | Yes | Yes | – | Yes | Yes | – | potent activity in inhibiting proliferation | Inhibition of tube formation | – | –
5 | LRRFSTMPFMFTNINNVTNF-NH2 [SP2025] | – | – | 96.48 | Complete | – | – | – | Yes | Yes | – | Yes | Yes | – | not affected | – | 18.19 | –
6 | LRRFSTMPFMFTNINV-NH2 [SP2029, LRRFSTMPFMFTNINV] | – | 54.13% | 93.75 | Complete | – | – | – | Yes | Yes | – | Yes | Yes | – | potent activity in inhibiting proliferation | Inhibition of tube formation | – | –
7 | LRRFSTMPFMFVNINNVVNF-NH2 [SP2027] | – | – | 96.75 | Complete | – | – | – | Yes | Yes | – | Yes | Yes | – | not affected | – | 27.02 | –
8 | NINNVAbuNF (NINNVXNF; Abu non-natural residue; Artificial sequence based on the human Collagen Type IV protein) [SP2009] | – | 55% | 0 | Partial | – | – | – | No | Yes | inhibitory activity; also recorded: active in migration | No | Yes | displayed activity in inhibiting tube formation | – | – | – | Inactive
